In assay [1] the target is T1, c-Myc Micro-Tag (Myc-MicroTag) (Homo sapiens, UniProt P01106).
T1 construct: 15-residue Micro-Tag at C-terminus; transiently expressed in HEK293; Triton X-100 lysate
Kind of assay: Micro-Tag thermal-shift target engagement (enzyme complementation). It is filed as biochemical.

Assay [2] addresses T2, recombinant Myc protein (full length c-Myc) (Homo sapiens, UniProt P01106).
T2 construct: full length recombinant protein, gift of A. Chinnaiyan
Kind of assay: competitive fluorescence polarization against 10074-G5. Format: binding. The settings on record: 10 µM Myc, 10 µM 10074-G5, DL78 20-60 µM, 30 min room temperature; site unproven, competitive or allosteric. On the technique in general: Fluorescence polarisation rises when a labelled molecule tumbles more slowly, as on binding a larger partner.

T2 sequence (P01106 whole entry): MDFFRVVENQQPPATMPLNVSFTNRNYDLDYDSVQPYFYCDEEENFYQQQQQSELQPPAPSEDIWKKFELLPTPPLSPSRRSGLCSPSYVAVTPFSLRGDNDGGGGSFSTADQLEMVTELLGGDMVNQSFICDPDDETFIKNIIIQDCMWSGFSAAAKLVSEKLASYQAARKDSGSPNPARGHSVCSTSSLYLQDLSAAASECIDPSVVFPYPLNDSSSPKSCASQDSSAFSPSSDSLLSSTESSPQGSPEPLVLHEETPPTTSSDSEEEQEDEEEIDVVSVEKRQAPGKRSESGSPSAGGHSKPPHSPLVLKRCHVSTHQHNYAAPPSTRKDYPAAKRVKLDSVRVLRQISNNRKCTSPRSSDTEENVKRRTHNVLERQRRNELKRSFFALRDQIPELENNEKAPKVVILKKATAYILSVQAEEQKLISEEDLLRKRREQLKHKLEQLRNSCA
T1 sequence (P01106 whole entry): as above

For the molecule `COc1ccc2oc(C(=O)c3c(C)oc4ccc(OC)cc34)cc2c1` [DL78, (5-methoxy-2-methylbenzofuran-3-yl)(5-methoxybenzofuran-2-yl)methanone], the EC50 – broadly, the concentration needed to bring the measured effect to its halfway point – in assay [1] was determined as 1800 nM. The “competitive fluorescence polarization against 10074-G5” value in assay [2] is “DL78 competed with 10074-G5 in a dose dependent manner”.

These data come from publication PMC12578881, “Pan-cancer Myc modulator that targets Myc-α-tubulin interaction to drive selective mitotic catastrophe” (Scientific Reports, 2025).
